Assays:
Test in all cases: Job plot, absorption and fluorescence
Details in all cases: 150 mM KCl; 10 mM Tris-HCl pH 7.4, 1 mM Na2EDTA, 400 ml/l PEG 200; 5 μM total
[1] = tested on: Hum51 (DNA, G4) GGGTTAGGGTTAGGGTTAGGGTTAGGGTTAGGGTTAGGGTTAGGGTTAGGG
[2] = tested on: Hum57-M1 (DNA, G4) GGGTTAGGGTTAGGGTTAGGGTTAGGGTTAGGGTTAGGGTTAGGGTGTGAGTGTGAG
[3] = tested on: Hum63 (DNA, G4) GGGTTAGGGTTAGGGTTAGGGTTAGGGTTAGGGTTAGGGTTAGGGTTAGGGTTAGGGTTAGGG
[4] = tested on: Hum57 (DNA, G4) GGGTTAGGGTTAGGGTTAGGGTTAGGGTTAGGGTTAGGGTTAGGGTTAGGGTTAGGG
[5] = tested on: Hum51-M2 (DNA, G4) GGGTTAGGGTTAGGGTTAGGGTTGAGTGTAGGGTTAGGGTTAGGGTTAGGG
[6] = tested on: Hum21 (DNA, G4) GGGTTAGGGTTAGGGTTAGGG
[7] = tested on: Hum45 (DNA, G4) GGGTTAGGGTTAGGGTTAGGGTTAGGGTTAGGGTTAGGGTTAGGG
[8] = tested on: Hum69 (DNA, G4) GGGTTAGGGTTAGGGTTAGGGTTAGGGTTAGGGTTAGGGTTAGGGTTAGGGTTAGGGTTAGGGTTAGGG
[9] = tested on: Hum57-M3 (DNA, G4) GGGTTAGGGTTAGGGTTAGGGTTGAGTGTGAGTGTAGGGTTAGGGTTAGGGTTAGGG
[10] = tested on: Hum57-M2 (DNA, G4) GGGTTAGGGTTAGGGTTAGGGTTGAGTGTAGGGTTAGGGTTAGGGTTAGGGTGTGAG
[11] = tested on: Hum51-M1 (DNA, G4) GGGTTAGGGTTAGGGTTAGGGTTAGGGTTAGGGTTAGGGTTAGGGTGTGAG

binding [1]: yes
binding [2]: yes
binding [3]: yes
binding [4]: yes
binding [5]: yes
binding [6]: yes
binding [7]: yes
binding [8]: yes
binding [9]: yes
binding [10]: yes
binding [11]: yes
SMILES: C[N+]1(CCOc2ccc(-c3c4nc(c(-c5ccc(OCC[N+]6(C)CCCCC6)cc5)c5ccc([nH]5)c(-c5ccc(OCC[N+]6(C)CCCCC6)cc5)c5nc(c(-c6ccc(OCC[N+]7(C)CCCCC7)cc6)c6ccc3[nH]6)C=C5)C=C4)cc2)CCCCC1

From paper PMC4117758 (2014)
